The values below come from patent publication US20180353462A1, “[…] AGENTS […] FLAVONOID DERIVATIVES TARGETING KINASES, SIRTUINS AND ONCOGENIC AGENTS FOR THE TREATMENT OF CANCERS” (priority 2015, published 2018).

Assay [1] addresses T1, SIRT-1 (Homo sapiens, UniProt Q96EB6).
T1 sequence (Q96EB6 1-747): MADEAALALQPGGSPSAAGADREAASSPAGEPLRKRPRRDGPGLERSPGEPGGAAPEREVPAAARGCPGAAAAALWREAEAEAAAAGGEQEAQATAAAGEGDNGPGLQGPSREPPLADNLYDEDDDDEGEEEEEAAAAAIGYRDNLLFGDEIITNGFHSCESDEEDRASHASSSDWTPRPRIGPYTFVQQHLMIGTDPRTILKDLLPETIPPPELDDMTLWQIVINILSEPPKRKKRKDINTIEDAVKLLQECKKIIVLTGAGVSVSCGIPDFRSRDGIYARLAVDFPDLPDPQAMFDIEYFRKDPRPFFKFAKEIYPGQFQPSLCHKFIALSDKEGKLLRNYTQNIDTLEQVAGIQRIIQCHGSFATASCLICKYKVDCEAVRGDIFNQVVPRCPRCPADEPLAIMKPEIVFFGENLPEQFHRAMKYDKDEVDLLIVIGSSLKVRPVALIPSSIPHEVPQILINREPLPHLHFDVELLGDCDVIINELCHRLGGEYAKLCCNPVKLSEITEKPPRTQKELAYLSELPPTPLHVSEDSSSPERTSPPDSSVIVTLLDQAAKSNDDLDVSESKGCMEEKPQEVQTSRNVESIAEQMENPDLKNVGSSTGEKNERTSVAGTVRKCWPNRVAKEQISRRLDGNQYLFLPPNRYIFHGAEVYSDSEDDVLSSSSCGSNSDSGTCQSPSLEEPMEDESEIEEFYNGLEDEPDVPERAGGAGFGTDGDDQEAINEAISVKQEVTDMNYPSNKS
The assay is described as follows: Inhibition of sirtuins, SIRT-1. The format is biochemical. Particulars: Table 3 SIRT. The source says: Inhibition of Sirtuins, Matrix Metalloproteinase, Bromodomains was Also Confirmed Using Standard Protocols and the Results are Present in Table 2.

Assay [2] concerns the target T2, Aurora A (Homo sapiens, UniProt O14965).
T2 construct: made in house
T2 sequence (O14965 1-403): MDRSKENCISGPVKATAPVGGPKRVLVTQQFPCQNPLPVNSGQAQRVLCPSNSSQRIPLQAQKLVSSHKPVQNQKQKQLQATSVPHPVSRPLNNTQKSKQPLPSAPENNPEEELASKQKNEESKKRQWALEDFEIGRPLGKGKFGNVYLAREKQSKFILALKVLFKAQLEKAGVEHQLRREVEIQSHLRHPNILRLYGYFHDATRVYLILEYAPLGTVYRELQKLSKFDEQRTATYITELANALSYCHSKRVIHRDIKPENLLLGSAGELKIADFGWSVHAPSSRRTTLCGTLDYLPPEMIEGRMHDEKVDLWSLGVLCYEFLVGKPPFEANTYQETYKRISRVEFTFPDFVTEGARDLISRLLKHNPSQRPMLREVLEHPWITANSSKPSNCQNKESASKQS
The assay is described as follows: Kinase competition binding assay, Aurora A. Particulars: Table 1 kinase panel. The procedure:
(§1) Cannabis flavonoids and their analogs were subjected to kinase inhibition assay. The compounds were first screened at a single concentration of 10 μM in the primary assay. […]. To determine the kd or IC50 values, competition binding assays were established, authenticated and executed as described previously. Fabian et al., “A Small Molecule-Kinase Interaction Map For Clinical Kinase Inhibitors.”, Nat Biotechnol, 23(3):329-36, Epub (2005). See also, Karaman et al., “A Quantitative Analysis Of Kinase Inhibitor Selectivity”, Nat. Biotechnol. […] For most assays, kinases were fused to T7 phage strains (Fabian, supra) and for the other assays, kinases were produced in HEK-293 cells after which they were tagged with DNA for quantitative PCR detection. In general, full-length constructs were used for small, single domain kinases, and catalytic domain constructs for large multi-domain kinases. The binding assays utilized streptavidin-coated magnetic beads treated with biotinylated small molecule ligands for 30 minutes at room temperature which generated affinity resins for the kinase assays. The liganded beads were blocked with excess biotin and washed with blocking buffer (SeaBlock (Pierce), 1% BSA, 0.05% Tween 20, 1 mM DTT) to remove unbound ligand and to reduce non-specific phage binding. […] Test compounds were prepared as 40× stocks in 100% DMSO and diluted directly into the assay (Final DMSO concentration=2.5%). All reactions were performed in polypropylene 384-well plates in a final volume of 0.04 ml. […] The beads were then re-suspended in elution buffer (1×PBS, 0.05% Tween 20, 0.5 μM non-biotinylated affinity ligand) and incubated at room temperature with shaking for 30 minutes. The kinase concentration in the eluates was measured by quantitative PCR. An illustration of the kinase interaction process is presented below. Kd/IC50 values were determined using a standard dose response curve using the hill equation. Curves were fitted using a non-linear least square fit with the Levenberg-Marquardt algorithm.
(§2) The compound(s) were screened at 10 μM and results for primary screen binding interactions are reported as ‘% Ctrl’, where lower numbers indicate stronger hits in the matrix.

Assay [3] concerns the target T3, RIOK1 (Homo sapiens, UniProt Q9BRS2).
T3 construct: T7 phage fusion (most assays) or DNA tag for qPCR (HEK-293-made kinases); made in house
T3 sequence (Q9BRS2 1-568): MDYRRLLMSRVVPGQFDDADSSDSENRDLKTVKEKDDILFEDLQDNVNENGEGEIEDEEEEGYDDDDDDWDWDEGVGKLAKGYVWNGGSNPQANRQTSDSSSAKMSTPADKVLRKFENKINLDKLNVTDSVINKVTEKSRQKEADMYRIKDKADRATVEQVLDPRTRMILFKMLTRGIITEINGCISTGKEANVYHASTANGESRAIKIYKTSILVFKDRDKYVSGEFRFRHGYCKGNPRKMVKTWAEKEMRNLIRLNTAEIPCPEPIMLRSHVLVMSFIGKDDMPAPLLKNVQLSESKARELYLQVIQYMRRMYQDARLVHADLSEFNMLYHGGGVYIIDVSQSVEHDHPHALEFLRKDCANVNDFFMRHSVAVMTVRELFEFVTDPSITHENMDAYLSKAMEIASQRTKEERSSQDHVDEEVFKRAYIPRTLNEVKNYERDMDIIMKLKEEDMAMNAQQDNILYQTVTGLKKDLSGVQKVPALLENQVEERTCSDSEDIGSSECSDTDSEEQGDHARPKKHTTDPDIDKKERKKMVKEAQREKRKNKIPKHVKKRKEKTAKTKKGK
In words: Kinase competition binding assay, RIOK1. Conditions: Table 1 kinase panel. The procedure: as §1, §2

Assay [4] has as its target T4, PDGFRB (Homo sapiens, UniProt P09619).
T4 construct: catalytic domain constructs for large multi-domain kinases; T7 phage fusion (most assays) or DNA tag for qPCR (HEK-293-made kinases); made in house
The assay is described as follows: Kinase competition binding assay, PDGFRB. Conditions: Table 1 kinase panel. As to the method:
as §1, §2

In assay [5] the target is EFGR(L858R, T7790M). In words: Kinase competition binding assay, EFGR(L858R, T7790M). Conditions: Table 1 kinase panel. As to the method:
as §1, §2

The target in assay [6] is T5, BIKE (Homo sapiens, UniProt Q9NSY1).
T5 construct: made in house
T5 sequence (Q9NSY1 whole entry): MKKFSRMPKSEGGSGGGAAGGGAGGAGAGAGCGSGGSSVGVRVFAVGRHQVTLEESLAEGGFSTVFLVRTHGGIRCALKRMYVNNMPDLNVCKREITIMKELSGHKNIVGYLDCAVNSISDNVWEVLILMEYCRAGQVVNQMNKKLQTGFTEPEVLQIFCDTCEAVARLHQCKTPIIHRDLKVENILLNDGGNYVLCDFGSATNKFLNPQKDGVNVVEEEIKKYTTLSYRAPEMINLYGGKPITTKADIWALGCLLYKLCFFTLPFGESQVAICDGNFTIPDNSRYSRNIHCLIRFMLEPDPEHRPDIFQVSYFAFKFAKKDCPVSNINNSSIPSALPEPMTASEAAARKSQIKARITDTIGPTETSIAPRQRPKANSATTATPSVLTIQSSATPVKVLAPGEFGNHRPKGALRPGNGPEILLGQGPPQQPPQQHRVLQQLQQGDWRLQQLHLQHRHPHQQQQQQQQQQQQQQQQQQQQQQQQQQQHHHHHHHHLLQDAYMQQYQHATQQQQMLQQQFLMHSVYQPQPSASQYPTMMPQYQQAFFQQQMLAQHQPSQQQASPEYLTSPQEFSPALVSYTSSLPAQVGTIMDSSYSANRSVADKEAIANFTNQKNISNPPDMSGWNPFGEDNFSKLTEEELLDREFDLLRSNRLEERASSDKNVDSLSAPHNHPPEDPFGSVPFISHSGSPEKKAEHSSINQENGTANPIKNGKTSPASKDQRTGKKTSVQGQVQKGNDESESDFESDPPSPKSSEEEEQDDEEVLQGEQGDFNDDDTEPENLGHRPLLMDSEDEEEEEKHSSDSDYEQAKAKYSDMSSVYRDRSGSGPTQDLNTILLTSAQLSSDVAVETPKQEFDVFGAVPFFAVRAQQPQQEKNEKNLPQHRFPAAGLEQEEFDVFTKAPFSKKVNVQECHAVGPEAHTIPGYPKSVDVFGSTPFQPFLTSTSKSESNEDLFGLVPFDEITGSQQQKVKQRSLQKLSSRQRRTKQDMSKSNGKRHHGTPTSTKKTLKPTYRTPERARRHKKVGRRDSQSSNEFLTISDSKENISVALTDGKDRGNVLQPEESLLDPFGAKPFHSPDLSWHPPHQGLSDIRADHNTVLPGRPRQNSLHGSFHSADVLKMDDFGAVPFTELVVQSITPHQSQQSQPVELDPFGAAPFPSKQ
The assay is described as follows: Kinase competition binding assay, BIKE. Particulars: Table 1 kinase panel. As to the method: as §1, §2

The target of assay [7] is T6, PDGFRa (Homo sapiens, UniProt P16234).
T6 construct: catalytic domain constructs for large multi-domain kinases; T7 phage fusion (most assays) or DNA tag for qPCR (HEK-293-made kinases); made in house
T6 sequence (P16234 593-954 limits assumed): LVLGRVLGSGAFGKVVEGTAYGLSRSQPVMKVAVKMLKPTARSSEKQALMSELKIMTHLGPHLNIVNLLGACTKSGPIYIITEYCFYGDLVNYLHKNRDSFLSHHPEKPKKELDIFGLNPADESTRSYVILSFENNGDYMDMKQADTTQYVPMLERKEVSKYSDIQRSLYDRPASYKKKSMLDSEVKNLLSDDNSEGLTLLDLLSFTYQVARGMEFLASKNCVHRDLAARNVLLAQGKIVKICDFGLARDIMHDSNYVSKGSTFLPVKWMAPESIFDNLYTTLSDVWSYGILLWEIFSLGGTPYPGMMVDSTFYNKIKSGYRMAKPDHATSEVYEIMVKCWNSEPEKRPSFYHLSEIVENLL
In words: Kinase competition binding assay, PDGFRa. Particulars: Table 1 kinase panel. As to the method:
Cannabis flavonoids and their analogs were subjected to kinase inhibition assay. The compounds were first screened at a single concentration of 10 μM in the primary assay. […]. To determine the kd or IC50 values, competition binding assays were established, authenticated and executed as described previously. Fabian et al., “A Small Molecule-Kinase Interaction Map For Clinical Kinase Inhibitors.”, Nat Biotechnol, 23(3):329-36, Epub (2005). See also, Karaman et al., “A Quantitative Analysis Of Kinase Inhibitor Selectivity”, Nat. Biotechnol. […] For most assays, kinases were fused to T7 phage strains (Fabian, supra) and for the other assays, kinases were produced in HEK-293 cells after which they were tagged with DNA for quantitative PCR detection. In general, full-length constructs were used for small, single domain kinases, and catalytic domain constructs for large multi-domain kinases. The binding assays utilized streptavidin-coated magnetic beads treated with biotinylated small molecule ligands for 30 minutes at room temperature which generated affinity resins for the kinase assays. The liganded beads were blocked with excess biotin and washed with blocking buffer (SeaBlock (Pierce), 1% BSA, 0.05% Tween 20, 1 mM DTT) to remove unbound ligand and to reduce non-specific phage binding. […] Test compounds were prepared as 40× stocks in 100% DMSO and diluted directly into the assay (Final DMSO concentration=2.5%). All reactions were performed in polypropylene 384-well plates in a final volume of 0.04 ml. […] The beads were then re-suspended in elution buffer (1×PBS, 0.05% Tween 20, 0.5 μM non-biotinylated affinity ligand) and incubated at room temperature with shaking for 30 minutes. The kinase concentration in the eluates was measured by quantitative PCR. An illustration of the kinase interaction process is presented below. Kd/IC50 values were determined using a standard dose response curve using the hill equation. Curves were fitted using a non-linear least square fit with the Levenberg-Marquardt algorithm. […]

Bounds are passed on as bounds.

T4 sequence (P09619 600-962 limits assumed): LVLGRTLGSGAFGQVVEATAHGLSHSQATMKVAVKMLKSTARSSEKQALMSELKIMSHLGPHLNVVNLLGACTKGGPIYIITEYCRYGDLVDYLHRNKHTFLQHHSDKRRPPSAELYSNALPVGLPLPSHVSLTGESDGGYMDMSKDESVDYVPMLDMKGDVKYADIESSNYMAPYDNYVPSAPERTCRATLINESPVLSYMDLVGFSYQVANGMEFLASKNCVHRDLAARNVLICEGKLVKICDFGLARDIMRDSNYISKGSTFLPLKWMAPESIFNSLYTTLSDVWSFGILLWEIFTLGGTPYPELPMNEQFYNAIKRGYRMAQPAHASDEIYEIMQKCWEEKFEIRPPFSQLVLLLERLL

As for `COc1cc(-c2cc(=O)c3c(O)c(C/C=C(\C)CCC=C(C)C)c(O)cc3o2)ccc1O` [FBL-03A], the IC50 (commonly the midpoint of a concentration-inhibition curve) in assay [1] was 19 µM; in assay [2], 730 nM; in assay [3], more than 20000 nM; in assay [4], 330 nM; in assay [5], more than 20000 nM; in assay [6], more than 20000 nM.

In the case of `COc1cc(-c2cc(=O)c3c(O)c(CC=C(C)C)c(O)cc3o2)ccc1O` [FBL-03B], the IC50 in assay [1] was 27.4 µM; in assay [2], 12 nM; in assay [3] it was more than 10000 nM; in assay [4], 1160 nM; in assay [5], more than 1000 nM; in assay [6], more than 20000 nM. For the same molecule, the IC50 in assay [7] is 982 nM.

Consider `COc1cc(-c2cc(=O)c3c(O)cc(O)c(C/C=C(\C)CCC=C(C)C)c3o2)ccc1O` [FBL-03C], for which the IC50 was 39.5 µM in assay [1]; 340 nM in assay [3]; more than 1000 nM in assay [4]; 680 nM in assay [5]; 21 nM in assay [6].

In the case of `COc1ccc(-c2cc(=O)c3c(O)c(C/C=C(\C)CCC=C(C)C)c(O)cc3o2)cc1OC` [FBL-03D], the IC50 in assay [2], in assay [3], in assay [4], in assay [5], in assay [6] and in assay [7] was more than 30000 nM each time.

Turning to `COc1cc(-c2cc(=O)c3c(O)cc(O)c(CC=C(C)C)c3o2)ccc1O` [FBL-03G], the half-maximal inhibitory concentration (IC50) in assay [2] is 1090 nM; in assay [3] it was more than 20000 nM; in assay [4] it was 3310 nM; in assay [5] it was more than 1000 nM; in assay [6], more than 20000 nM; in assay [7] it was 5920 nM.
